Measurements: patent US20260062422A1 (Halda Therapeutics OpCo, Inc., priority 2022, published 2026)

Legend:
[1] = test system: T-Rex 293 cell line SC3 cells having increased expression of androgen receptor protein due to exposure to doxycycline; assay: Cellular growth inhibition, T-Rex 293 SC3 cells with doxycycline (androgen receptor induced), CellTiter-Glo; assay type: cell-based; settings: 72 h, T-Rex 293 SC3 cells with 10 ng/mL doxycycline (increased androgen receptor expression)
In short: (§1)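 Luminescence read-out (CellTiter-Glo 2.0) after 72 h compound exposure; GI50 by four-parameter nonlinear regression, baseline set at zero luminescence. SC3 cells, a doxycycline-inducible wild-type AR clone of T-Rex 293, were cultured ±10 ng/mL doxycycline in charcoal-dextran FBS medium.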

[2] = test system: T-Rex 293 cell line SC3 cells lacking increased expression of androgen receptor protein; assay: Cellular growth inhibition, T-Rex 293 SC3 cells without doxycycline, CellTiter-Glo; assay type: cell-based; settings: 72 h, T-Rex 293 SC3 cells not exposed to doxycycline, CellTiter-Glo 2.0
In short: as §1

VCaP cells = assay: Cellular growth inhibition assay for VCaP cells, CellTiter-Glo; assay type: cell-based, human; settings: Homo sapiens, VCaP, 72 h, 72 hours treatment, CellTiter-Glo 2.0
In short: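 GI50 values come from four-parameter curve fits of luminescence data normalized to a zero baseline. Compound, in medium with 0.5% DMSO, was added one day after plating and left for 72 h before CellTiter-Glo 2.0 addition.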

T47D cells = assay: Cellular growth inhibition assay for T47D cells, CellTiter-Glo; assay type: cell-based, human; settings: Homo sapiens, T47D, 72 h, 72 hours treatment, CellTiter-Glo 2.0 cell viability
In short: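 Growth inhibition as GI50, fitted with four parameters to CellTiter-Glo luminescence after 72 h of compound exposure (0.5% DMSO). Cells were T47D, grown in insulin-supplemented (0.2 units/mL) DMEM with 10% FBS and treated one day post-seeding.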

| SMILES | GI50 [1] [nM] | GI50 [2] [nM] | GI50 (VCaP cells) [nM] | GI50 (T47D cells) [nM] |
| --- | --- | --- | --- | --- |
| Cc1sc2c(c1C)C(c1ccc(C#C[C@H]3C[C@]4(CCCN(c5ncc(C(=O)N[C@H]6C(C)(C)[C@H](Oc7ccc(C#N)c(Cl)c7)C6(C)C)cn5)C4)C3)cc1)=N[C@@H](Cc1ncco1)c1nnc(C)n1-2 [Compound I-269] | < 500 | > 3000 | 1500 to 3000 | 500 to 1500 |
| Cc1sc2c(c1C)C(c1ccc(CCN3CC4(CCCN(c5ncc(C(=O)N[C@H]6C(C)(C)[C@H](Oc7ccc(C#N)c(Cl)c7)C6(C)C)cn5)C4)C3)cc1)=N[C@@H](Cc1ncco1)c1nnc(C)n1-2 [Compound I-272] | < 500 | 500 to 1500 | < 500 | < 500 |
| Cc1sc2c(c1C)C(c1ccc(OC3CC4(CCN(c5ncc(C(=O)N[C@H]6C(C)(C)[C@H](Oc7ccc(C#N)c(Cl)c7)C6(C)C)cn5)CC4)C3)cc1)=N[C@](C)(C(C)c1ncco1)c1nnc(C)n1-2 (stereo partly shown) [Compound I-273] | < 500 | > 3000 | > 3000 | > 3000 |
| Cc1sc2c(c1C)C(c1ccc(NCC(=O)N3CCC(c4ncc(C(=O)N[C@H]5C(C)(C)[C@H](Oc6ccc(C#N)c(Cl)c6)C5(C)C)cn4)CC3)cc1)=N[C@@H](Cc1ncco1)c1nnc(C)n1-2 [Compound I-274] | < 500 | > 3000 | > 3000 | 500 to 1500 |
| Cc1sc2c(c1C)C(c1ccc(NCC(=O)N3CCC(c4ncc(C(=O)N[C@H]5C(C)(C)[C@H](Oc6ccc(C#N)c(Cl)c6)C5(C)C)cn4)CC3)cc1)=N[C@H](Cc1ncco1)c1nnc(C)n1-2 [Compound I-275] | < 500 | < 500 | < 500 | < 500 |
| Cc1sc2c(c1C)C(c1ccc(N3CCC(CNC(=O)c4ncc(C(=O)N[C@H]5C(C)(C)[C@H](Oc6ccc(C#N)c(Cl)c6)C5(C)C)cn4)CC3)cc1)C[C@@H](Cc1ncco1)c1nnc(C)n1-2 (stereo partly shown) [Compound I-276] | > 3000 | > 3000 | 1500 to 3000 | > 3000 |
| Cc1sc2c(c1C)C(c1ccc(CCCOC3CCN(c4ncc(C(=O)N[C@H]5C(C)(C)[C@H](Oc6ccc(C#N)c(Cl)c6)C5(C)C)cn4)CC3)cc1)=N[C@@H](Cc1cnccn1)c1nnc(C)n1-2 [Compound I-277] | < 500 | > 3000 | > 3000 | > 3000 |
| Cc1sc2c(c1C)C(c1ccc(CCCOC3CCN(c4ncc(C(=O)N[C@H]5C(C)(C)[C@H](Oc6ccc(C#N)c(Cl)c6)C5(C)C)cn4)CC3)cc1)=N[C@H](Cc1cnccn1)c1nnc(C)n1-2 [Compound I-278] | < 500 | < 500 | < 500 | < 500 |
| Cc1sc2c(c1C)C(c1ccc(OC3CC4(CCN(c5ncc(C(=O)N[C@H]6C(C)(C)[C@H](Oc7ccc(C#N)c(Cl)c7)C6(C)C)cn5)CC4)C3)cc1)=N[C@@H](Cc1ncon1)c1nnc(C)n1-2 [Compound I-279] | < 500 | > 3000 | 1500 to 3000 | < 500 |
| Cc1sc2c(c1C)C(c1ccc(OC3CC4(CCN(c5ncc(C(=O)N[C@H]6C(C)(C)[C@H](Oc7ccc(C#N)c(Cl)c7)C6(C)C)cn5)CC4)C3)cc1)=N[C@@H](CC(C)(C)O)c1nnc(C)n1-2 [Compound I-280] | < 500 | > 3000 | < 500 | > 3000 |
| Cc1sc2c(c1C)C(c1ccc(O[C@H]3C[C@@H](N(C(C)C)C4CCN(c5ncc(C(=O)N[C@H]6C(C)(C)[C@H](Oc7ccc(C#N)c(Cl)c7)C6(C)C)cn5)CC4)C3)cc1)=N[C@@H](Cc1ncco1)c1nnc(C)n1-2 [Compound I-281] | < 500 | 500 to 1500 | < 500 | < 500 |
| Cc1sc2c(c1C)C(c1ccc(OC3CC4(C3)C[C@H](C)N(c3ncc(C(=O)N[C@H]5C(C)(C)[C@H](Oc6ccc(C#N)c(Cl)c6)C5(C)C)cn3)[C@@H](C)C4)cc1)=N[C@@H](Cc1ncco1)c1nnc(C)n1-2 (stereo partly shown) [Compound I-282] | < 500 | > 3000 | > 3000 | < 500 |
| Cc1sc2c(c1C)C(c1ccc(CCCN3CC4(C3)CN(c3ncc(C(=O)N[C@H]5C(C)(C)[C@H](Oc6ccc(C#N)c(Cl)c6)C5(C)C)cn3)C4)cc1)=N[C@@H](Cc1ncco1)c1nnc(C)n1-2 [Compound I-284] | < 500 | 500 to 1500 | < 500 | < 500 |
| Cc1sc2c(c1C)C(c1ccc(C(=O)N3CCN(C(=O)c4ncc(C(=O)N[C@H]5C(C)(C)[C@H](Oc6ccc(C#N)c(Cl)c6)C5(C)C)cn4)CC3)cc1)=N[C@@H](Cc1ncco1)c1nnc(C)n1-2 [Compound I-285] | > 3000 | > 3000 | > 3000 | > 3000 |
| Cc1sc2c(c1C)C(c1ccc(C(=O)N3CCN(C(=O)c4ncc(C(=O)N[C@H]5C(C)(C)[C@H](Oc6ccc(C#N)c(Cl)c6)C5(C)C)cn4)CC3)cc1)=N[C@H](Cc1ncco1)c1nnc(C)n1-2 [Compound I-286] | 500 to 1500 | > 3000 | > 3000 | > 3000 |
| Cc1sc2c(c1C)C(c1ccc(CCC(=O)N3CCN(c4ncc(C(=O)N[C@H]5C(C)(C)[C@H](Oc6ccc(C#N)c(Cl)c6)C5(C)C)cn4)CC3)cc1)=N[C@@H](Cc1ncco1)c1nnc(C)n1-2 [Compound I-287] | < 500 | < 500 | < 500 | < 500 |
| Cc1sc2c(c1C)C(c1ccc(C(=O)N3CCC(Cc4ncc(C(=O)N[C@H]5C(C)(C)[C@H](Oc6ccc(C#N)c(Cl)c6)C5(C)C)cn4)CC3)cc1)=N[C@@H](Cc1ncco1)c1nnc(C)n1-2 [Compound I-288] | > 3000 | > 3000 | > 3000 | > 3000 |
| Cc1sc2c(c1C)C(c1ccc(C(=O)N3CCC(Cc4ncc(C(=O)N[C@H]5C(C)(C)[C@H](Oc6ccc(C#N)c(Cl)c6)C5(C)C)cn4)CC3)cc1)=N[C@H](Cc1ncco1)c1nnc(C)n1-2 [Compound I-289] | < 500 | > 3000 | 500 to 1500 | > 3000 |
| Cc1sc2c(c1C)C(c1ccc(CN3CCN(C(=O)c4ncc(C(=O)N[C@H]5C(C)(C)[C@H](Oc6ccc(C#N)c(Cl)c6)C5(C)C)cn4)CC3)cc1)=N[C@@H](Cc1ncco1)c1nnc(C)n1-2 [Compound I-290] | < 500 | 500 to 1500 | < 500 | 1500 to 3000 |
| Cc1sc2c(c1C)C(c1ccc(N3CCC(CNC(=O)c4ncc(C(=O)N[C@H]5C(C)(C)[C@H](Oc6ccc(C#N)c(Cl)c6)C5(C)C)cn4)CC3)cc1)=N[C@H](Cc1ncco1)c1nnc(C)n1-2 [Compound I-291] | < 500 | 500 to 1500 | < 500 | 500 to 1500 |
| Cc1sc2c(c1C)C(c1ccc(CNC(=O)CNC(=O)c3ncc(C(=O)N[C@H]4C(C)(C)[C@H](Oc5ccc(C#N)c(Cl)c5)C4(C)C)cn3)cc1)=N[C@@H](Cc1ncco1)c1nnc(C)n1-2 [Compound I-292] | > 3000 | > 3000 | 500 to 1500 | > 3000 |
| Cc1sc2c(c1C)C(c1ccc(C(=O)N3CCC(N(C)c4ncc(C(=O)N[C@H]5C(C)(C)[C@H](Oc6ccc(C#N)c(Cl)c6)C5(C)C)cn4)CC3)cc1)=N[C@@H](Cc1ncco1)c1nnc(C)n1-2 [Compound I-293] | < 500 | > 3000 | > 3000 | > 3000 |
| Cc1sc2c(c1C)C(c1ccc(C(=O)N3CCC(N(C)c4ncc(C(=O)N[C@H]5C(C)(C)[C@H](Oc6ccc(C#N)c(Cl)c6)C5(C)C)cn4)CC3)cc1)=N[C@H](Cc1ncco1)c1nnc(C)n1-2 [Compound I-294] | < 500 | > 3000 | 1500 to 3000 | 500 to 1500 |
| Cc1sc2c(c1C)C(c1ccc([C@@H]3CCCN(c4ncc(C(=O)N[C@H]5C(C)(C)[C@H](Oc6ccc(C#N)c(Cl)c6)C5(C)C)cn4)C3)cc1)=N[C@@H](Cc1ncco1)c1nnc(C)n1-2 [Compound I-295] | < 500 | < 500 | < 500 | < 500 |
| Cc1sc2c(c1C)C(c1ccc(C[C@@H]3CCCN(c4ncc(C(=O)N[C@H]5C(C)(C)[C@H](Oc6ccc(C#N)c(Cl)c6)C5(C)C)cn4)C3)cc1)=N[C@@H](Cc1ncco1)c1nnc(C)n1-2 [Compound I-296] | < 500 | 500 to 1500 | < 500 | < 500 |
| Cc1sc2c(c1C)C(c1ccc(C[C@H]3CCCN(c4ncc(C(=O)N[C@H]5C(C)(C)[C@H](Oc6ccc(C#N)c(Cl)c6)C5(C)C)cn4)C3)cc1)=N[C@@H](Cc1ncco1)c1nnc(C)n1-2 [Compound I-297] | < 500 | 500 to 1500 | < 500 | < 500 |
| Cc1sc2c(c1C)C(c1ccc(CC[C@H]3CCCC(c4ncc(C(=O)N[C@H]5C(C)(C)[C@H](Oc6ccc(C#N)c(Cl)c6)C5(C)C)cn4)C3)cc1)=N[C@@H](Cc1ncco1)c1nnc(C)n1-2 (stereo partly shown) [Compound I-298] | < 500 | < 500 | < 500 | < 500 |
| Cc1sc2c(c1C)C(c1ccc(CC[C@@H]3CCCN(c4ncc(C(=O)N[C@H]5C(C)(C)[C@H](Oc6ccc(C#N)c(Cl)c6)C5(C)C)cn4)C3)cc1)=N[C@@H](Cc1ncco1)c1nnc(C)n1-2 [Compound I-299] | < 500 | 500 to 1500 | < 500 | 1500 to 3000 |
